The assay relates to human umbilical vein endothelial cells (HUVECs). The following applies: confluent HUVECs, single bolus of physiologic levels of H2O2, 5 hr. The procedure:
HUVECs were treated with the indicated concentrations of H2O2 for 5 hours. The cells were harvested and the proteoglycans isolated and analyzed by Western blotting for lumican and biglycan.
Since lumican proteoglycan is deposited at enhanced levels in atherosclerosis-prone arteries, it is possible that lumican proteoglycan is generated by cultured human umbilical vein endothelial cells (HUVECs). The production of lumican proteoglycan by cultured human umbilical vein endothelial cells (HUVECs) was examined in vitro. Confluent HUVECs in complete media with serum and growth supplements were treated with a single bolus addition of varying concentrations of H2O2. After 5 hr the cells were washed and harvested as described previously (Kattapuram et al. (2005) Journal of Biological Chemnistry 280, 15340-15347). The proteoglycans were then extracted, isolated and analyzed by immunoblotting for lumican and biglycan.

The source of these data is US8236301B2, “Lumican proteoglycan in the diagnosis and treatment of atherosclerosis” (The General Hospital Corporation, priority 2005, dated 2012).

For the molecule `OO` [H2O2, Hydrogen Peroxide], the “upregulation of biglycan (immunoblot)” value is “no upregulation”. Moreover, under “vs resting conditions”, the “upregulation of Lumican-PG100 (immunoblot)” value is reported as “substantial upregulation”.
